Key:
[1] = test system: p-RSK (Thr359) in colo205 cells; test: p-RSK (Thr359) Acumen Assay in Colo205; type: cell-based; conditions: Homo sapiens, COLO 205, 1 hour compound incubation, read-out: Example 19 IC50
Procedure, shortened: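 Colo205 cells (4000/well, seeded overnight in 10% FBS) were exposed 1 hour at 37° C to compound added from a 3–0.001 μM dilution series in 5% DMSO. Cells were then fixed, permeabilised and immunostained for p-RSK Thr359, with PI counterstain. Acumen cytometry gave the percentage of positive cells, normalised to untreated wells and 3 uM GDC0994 wells, for the IC50 fit.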

MAPK1(ERK2) enzyme = biological target: T1, MAPK1(ERK2) enzyme (Homo sapiens, UniProt P28482); test: Z-Lyte Kinase Assay of ERK2; type: biochemical; conditions: read-out: Example 18 IC50
T1 construct: purchased Invitrogen PV3313
T1 sequence (P28482 whole entry): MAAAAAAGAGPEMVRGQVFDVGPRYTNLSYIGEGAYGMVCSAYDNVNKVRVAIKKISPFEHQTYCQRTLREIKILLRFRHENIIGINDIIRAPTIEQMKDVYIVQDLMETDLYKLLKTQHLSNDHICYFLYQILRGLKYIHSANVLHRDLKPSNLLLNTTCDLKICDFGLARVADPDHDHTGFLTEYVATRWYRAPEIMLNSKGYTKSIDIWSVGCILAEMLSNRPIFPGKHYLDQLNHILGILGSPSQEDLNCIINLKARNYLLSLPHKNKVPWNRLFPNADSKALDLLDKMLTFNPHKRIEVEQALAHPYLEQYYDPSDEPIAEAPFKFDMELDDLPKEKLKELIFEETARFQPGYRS
Procedure, shortened: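 FRET-based Z-LYTE assay using ERK2 kinase with Ser/Thr3 peptide; compound tested at 0.00046–1 μM final in 2% DMSO. Kinase reaction ran 1 h at 25-30° C, followed by 1 h development. The coumarin/fluorescein emission ratio (445/520 nm) gave % phosphorylation, and IC50 was fitted from inhibition relative to uninhibited control.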

Row | SMILES | IC50 [1] | IC50 (MAPK1(ERK2) enzyme)
1 | Cc1cnc(Nc2ccnn2C)cc1-c1cc2n(c1)C[C@H](CF)n1c-2nnc1C(F)(F)n1ccc(Cl)n1 [Compound 152] | ≤ 100 nM | ≤ 5 nM
2 | Cc1cnc(Nc2ccnn2C)cc1-c1cc2n(c1)C[C@H](CF)n1c-2nnc1C(F)(F)n1cc(Cl)cn1 [Compound 153] | ≤ 100 nM | ≤ 5 nM
3 | Cn1nccc1Nc1cc(-c2cc3n(c2)C[C@H](CF)n2c-3nnc2C(F)(F)c2ccnn2C)c(Cl)cn1 [Compound 154] | ≤ 100 nM | ≤ 5 nM
4 | CO[C@H]1Cn2cc(-c3cc(Nc4ccnn4C)ncc3Cl)cc2-c2nnc(C3(C(C)(F)F)CCC3)n2C1 [Compound 155] | ≤ 100 nM | 5 to 10 nM
5 | Cc1cnc(Nc2ccnn2C)nc1-c1cc2n(c1)C[C@H](CF)n1c-2nnc1C(F)(F)n1cc(Cl)cn1 [Compound 156] | ≤ 100 nM | ≤ 5 nM
6 | C[C@H]1Cn2cc(-c3cc(Nc4ccnn4C)ncc3Cl)cc2-c2nnc(C(F)(F)n3cc(Cl)cn3)n21 [Compound 157] | ≤ 100 nM | 5 to 10 nM
7 | Cc1nonc1C(F)(F)c1nnc2n1[C@@H](CF)Cn1cc(-c3cc(Nc4ccnn4C)ncc3Cl)cc1-2 [Compound 158] | ≤ 100 nM | 5 to 10 nM
8 | Cn1nccc1Nc1cc(-c2cc3n(c2)CC(C)(C)Cn2c-3nnc2C2(C(F)(F)F)CCC2)c(Cl)cn1 [Compound 159] | ≤ 100 nM | 5 to 10 nM
9 | C[C@H]1CCn2cc(-c3cc(Nc4ccnn4C)ncc3Cl)cc2-c2nnc(C3(CC(F)(F)F)CCC3)n21 [Compound 160] | ≤ 100 nM | ≤ 5 nM
10 | Cn1nccc1Nc1cc(-c2cc3n(c2)C[C@H](CF)n2c-3nnc2C(F)(F)c2nccs2)c(Cl)cn1 [Compound 161] | ≤ 100 nM | ≤ 5 nM
11 | Cn1nccc1Nc1cc(-c2cc3n(c2)C[C@H](F)Cn2c-3nnc2C(F)(F)n2cc(F)cn2)c(Cl)cn1 [Compound 162] | ≤ 100 nM | 5 to 10 nM
12 | Cn1nccc1Nc1cc(-c2cc3n(c2)C[C@H](CF)n2c-3nnc2C(F)(F)n2cc(F)cn2)c(Cl)cn1 [Compound 163] | ≤ 100 nM | ≤ 5 nM
13 | Cn1nccc1Nc1cc(-c2cc3n(c2)C[C@H](CF)n2c-3nnc2C(F)(F)n2cc(Cl)cn2)c(F)cn1 [Compound 164] | ≤ 100 nM | ≤ 5 nM
14 | CO[C@H]1Cn2cc(-c3cc(Nc4ccnn4C)ncc3Cl)cc2-c2nnc(C3(C(F)(F)F)CCC3)n2C1 [Compound 165] | ≤ 100 nM | 5 to 10 nM
15 | Cn1nccc1Nc1ncc(F)c(-c2cc3n(c2)C[C@H](CF)n2c-3nnc2C(F)(F)n2cc(Cl)cn2)n1 [Compound 166] | ≤ 100 nM | ≤ 5 nM
16 | COc1ccccc1C(F)(F)c1nnc2n1[C@@H](CF)Cn1cc(-c3nc(Nc4ccnn4C)ncc3C)cc1-2 [Compound 167] | ≤ 100 nM | ≤ 5 nM
17 | Cc1cnc(Nc2ccnn2C)cc1-c1cc2n(c1)CC1(Cn3c-2nnc3C(F)(F)C(F)F)CC(F)(F)C1 [Compound 168] | > 100 nM | 5 to 10 nM
18 | Cc1cnc(Nc2ccnn2C)cc1-c1cc2n(c1)CC(F)(F)Cn1c-2nnc1C1(C(F)F)CC(F)(F)C1 [Compound 169] | ≤ 100 nM | ≤ 5 nM
19 | Cc1cnc(Nc2ccnn2C)cc1-c1cc2n(c1)C[C@H](CF)n1c-2nnc1C(F)(F)Oc1ccccc1F [Compound 170] | > 100 nM | > 10 nM
20 | Cn1nccc1Nc1cc(-c2cc3n(c2)CC(F)(F)Cn2c-3nnc2C2(C(F)(F)F)CCC2)c(Cl)cn1 [Compound 171] | ≤ 100 nM | > 10 nM
21 | Cc1cnc(Nc2ccnn2C)cc1-c1cc2n(c1)C[C@H](CF)n1c-2nnc1C(F)(F)c1ccccc1Cl [Compound 172] | ≤ 100 nM | 5 to 10 nM
22 | Cc1cnc(Nc2ncnn2C)cc1-c1cc2n(c1)C[C@H](CF)n1c-2nnc1C(F)(F)c1ccccc1Cl [Compound 173] | > 100 nM | 5 to 10 nM
23 | Cc1cnc(Nc2ccnn2C)cc1-c1cc2n(c1)C[C@H](CF)n1c-2nnc1C(F)(F)c1ncccc1Cl [Compound 174] | ≤ 100 nM | ≤ 5 nM
